Experimental data taken from publication PMC8222254, “Self-assembly of an anion receptor with metal-dependent kinase inhibition and potent in vitro anti-cancer properties” (Nature Communications, 2021).

Columns and labels:
Type in all cases: biochemical
AMPK = molecular target: T1, AMPK (Homo sapiens, UniProt Q13131); experiment: ADP-Glo Kinase Assay in presence of varying AMP
T1 construct: purchased Promega
Method: ATP competition kinase assays were performed by the MRC Protein Phosphorylation and Ubiquitination Unit International Centre for Kinase Profiling (University of Dundee). Inhibition of recombinant human AMPK (α1β2γ1) by 10μM [L2Cu3]^6+ or [L2Zn3]^6+ was evaluated at five different ATP concentrations (0.5, 2, 20, 200 and 500 µM ATP). Substrate competition assays were performed using the ADP-Glo Kinase Assay (Promega) and recombinant human AMPK (α1β2γ1) (Promega) with concentrations of the provided AMPK substrate (SAMStide substrate, Promega) ranging from 1 to 15 mg/ml. Following pre-incubation of substrate with kinase for 5 min 10 µM [L2Cu3]^6+, [L2Zn3]^6+ or solvent control and 50 µM ATP was added to start the kinase reaction. For determination of the effects of AMP on AMPK inhibition by [L2Zn3]^6+, the ADP-Glo Kinase Assay (Promega) was performed in presence of varying of AMP (0, 80, 160 μM).

[1] = test system: recombinant human AMPK (pT172 AMPKα1, pS108 AMPKβ1); experiment: In vitro phosphatase assay with recombinant kinase, immunoblotting; settings: 50µM
Method: (§1) 800 ng of purified recombinant human AMPK (α1β2γ1) or Src kinase (MRC PPU, International Centre for Kinase Profiling, University of Dundee) was incubated with 50 μM [L2Cu3]^6+, [L2Zn3]^6+, or vehicle control in 50 mM Tris HCl pH 7.5 containing 50 μM ATP for 4 h at 37 °C. For [L2Zn3]^6+ time course and concentration titration experiments, 800 ng recombinant human AMPK was used (α1β2γ1 AMPK isoform for pT172 AMPKα1 detection or α2β1γ1 AMPK isoform for pS108 AMPKβ1 detection). For evaluation of ATP dependency and influence of AMP, 50 µM ATP was replaced with 50 µM AMP or omitted. Reactions were stopped by addition of Laemmli’s buffer (Biorad) to 1x and heating at 95 °C for 5 min before analysis by SDS PAGE and immunoblotting for detection of specific phosphorylated amino acids of AMPK and Src proteins.
(§2) Protein lysates and recombinant proteins were resolved on 15% SDS polyacrylamide gels. Proteins were electroblotted onto nitrocellulose membrane by wet transfer in 1xTris Glycine buffer (Biorad) at 35 mA overnight at room temperature. After blocking of membranes, these were incubated with primary antibody overnight at 4 °C before addition of rabbit or mouse secondary antibody (HRP-conjugated; 1:5000, Dako P0448 or P0260) for 1 h at room temperature and development of blots by enhanced chemiluminescence. Primary antibodies were: anti-Src (total) (Cell Signalling Technology #2123 1:1000), anti-phosphorylated Src (Y527) (Cell Signalling Technology #21055 1:1000), anti-phosphorylated Src (Y416) (Cell Signalling Technology #69435 1:1000), anti-AMPKα (total) (Cell Signalling Technology #2532 1:1000), anti-phosphorylated AMPKα (T172) (Cell Signalling Technology #2535 1:1000), anti-AMPKβ1 (total) (Cell Signalling Technology #4150 1:1000), anti-phosphorylated AMPKβ1 (S108) (abcam ab156890 1:500), anti-phospho-Tyr (pan) (Cell Signalling Technology #8954 1:2000), anti-p53 (Santa Cruz, DO-1 clone, 1:1000,), anti-phosphorylated LDH-A (Y10) (Cell Signalling Technology #8176 1:1000), anti-LDH-A/B (total) (abcam ab134187 1:5000), anti-β-actin (Merck MAB1501, 1:40,000). Quantification of signals was performed by densitometry using Image J software. Uncropped and unprocessed scans are provided in the Source Data file.

[2] = molecular target: recombinant human AMPK (pT172 AMPKα1, pS108 AMPKβ1) (Homo sapiens, UniProt Q9Y478); experiment: as above; settings: concentration titration 0-50µM
recombinant human AMPK (pT172 AMPKα1, pS108 AMPKβ1) (Homo sapiens, UniProt Q9Y478), sequence (Q9Y478 whole entry): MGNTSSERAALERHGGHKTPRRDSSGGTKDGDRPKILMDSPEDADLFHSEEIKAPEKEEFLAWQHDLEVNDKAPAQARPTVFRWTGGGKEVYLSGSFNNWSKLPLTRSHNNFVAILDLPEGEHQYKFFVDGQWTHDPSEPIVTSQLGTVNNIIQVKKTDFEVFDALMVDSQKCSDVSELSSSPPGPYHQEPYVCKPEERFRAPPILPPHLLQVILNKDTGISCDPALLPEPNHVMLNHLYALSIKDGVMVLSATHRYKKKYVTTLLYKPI
recombinant human AMPK (pT172 AMPKα1, pS108 AMPKβ1) (Homo sapiens, UniProt Q9Y478), sequence (P54646 whole entry partner): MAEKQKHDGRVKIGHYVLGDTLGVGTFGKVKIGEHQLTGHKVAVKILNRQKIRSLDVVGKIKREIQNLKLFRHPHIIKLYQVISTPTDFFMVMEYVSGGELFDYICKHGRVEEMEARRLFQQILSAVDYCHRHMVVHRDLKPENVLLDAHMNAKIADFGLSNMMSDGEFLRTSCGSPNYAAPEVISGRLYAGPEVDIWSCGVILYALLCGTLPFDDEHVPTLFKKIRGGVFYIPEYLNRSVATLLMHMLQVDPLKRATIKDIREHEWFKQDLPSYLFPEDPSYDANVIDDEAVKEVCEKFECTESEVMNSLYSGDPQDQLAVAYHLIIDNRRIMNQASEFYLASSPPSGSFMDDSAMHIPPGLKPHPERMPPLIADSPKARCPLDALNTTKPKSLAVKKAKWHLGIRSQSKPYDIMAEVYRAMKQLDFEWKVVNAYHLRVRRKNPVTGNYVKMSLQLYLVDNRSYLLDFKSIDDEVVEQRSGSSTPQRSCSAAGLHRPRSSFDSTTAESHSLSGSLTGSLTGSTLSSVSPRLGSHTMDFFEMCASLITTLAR
recombinant human AMPK (pT172 AMPKα1, pS108 AMPKβ1) (Homo sapiens, UniProt Q9Y478), sequence (P54619 whole entry partner): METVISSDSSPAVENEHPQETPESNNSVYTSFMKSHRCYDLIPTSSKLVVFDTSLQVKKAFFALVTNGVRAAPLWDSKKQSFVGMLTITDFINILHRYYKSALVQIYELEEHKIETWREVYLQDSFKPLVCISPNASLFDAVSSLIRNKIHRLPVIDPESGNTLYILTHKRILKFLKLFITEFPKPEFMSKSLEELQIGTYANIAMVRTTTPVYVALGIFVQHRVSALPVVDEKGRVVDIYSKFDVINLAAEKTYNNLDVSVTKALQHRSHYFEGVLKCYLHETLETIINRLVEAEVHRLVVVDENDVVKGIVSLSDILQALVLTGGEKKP
Method: as §1, §2

Src = molecular target: T2, Src (Homo sapiens, UniProt P12931); experiment: as above; settings: 50 μM complex, 4 h, with ATP
T2 construct: His tag (N); host or cells: baculovirus expression system
T2 sequence (P12931 whole entry): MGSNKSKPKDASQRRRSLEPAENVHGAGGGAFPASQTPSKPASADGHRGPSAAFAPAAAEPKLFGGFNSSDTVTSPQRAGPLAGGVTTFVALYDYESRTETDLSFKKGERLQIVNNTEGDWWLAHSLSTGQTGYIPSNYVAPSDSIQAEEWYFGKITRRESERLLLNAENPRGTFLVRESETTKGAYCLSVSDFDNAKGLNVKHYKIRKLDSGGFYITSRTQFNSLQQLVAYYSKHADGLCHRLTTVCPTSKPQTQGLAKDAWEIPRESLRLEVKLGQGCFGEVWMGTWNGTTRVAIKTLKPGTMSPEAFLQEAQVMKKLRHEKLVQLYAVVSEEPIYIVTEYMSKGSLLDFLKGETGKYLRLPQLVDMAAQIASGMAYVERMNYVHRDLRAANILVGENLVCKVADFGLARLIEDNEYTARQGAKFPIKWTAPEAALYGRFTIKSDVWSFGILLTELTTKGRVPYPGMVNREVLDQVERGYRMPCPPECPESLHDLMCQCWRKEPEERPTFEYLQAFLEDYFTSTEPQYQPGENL
Method: as §1, §2

T1 sequence (Q13131 whole entry): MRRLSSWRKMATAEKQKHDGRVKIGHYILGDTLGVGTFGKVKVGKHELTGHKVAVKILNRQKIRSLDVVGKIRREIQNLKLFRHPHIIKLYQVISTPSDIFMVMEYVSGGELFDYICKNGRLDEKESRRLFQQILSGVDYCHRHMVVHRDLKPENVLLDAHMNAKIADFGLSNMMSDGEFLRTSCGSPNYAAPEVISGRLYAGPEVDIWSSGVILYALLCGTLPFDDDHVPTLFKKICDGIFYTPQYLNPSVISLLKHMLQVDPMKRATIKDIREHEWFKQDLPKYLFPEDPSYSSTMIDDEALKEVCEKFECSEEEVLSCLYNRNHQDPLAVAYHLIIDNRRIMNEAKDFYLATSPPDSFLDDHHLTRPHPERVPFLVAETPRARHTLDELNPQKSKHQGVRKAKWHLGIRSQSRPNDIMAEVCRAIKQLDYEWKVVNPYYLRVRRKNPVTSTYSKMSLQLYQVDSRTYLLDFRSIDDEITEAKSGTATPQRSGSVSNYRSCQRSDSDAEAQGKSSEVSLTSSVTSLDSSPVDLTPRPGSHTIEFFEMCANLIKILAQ
T1 sequence (O43741 whole entry partner): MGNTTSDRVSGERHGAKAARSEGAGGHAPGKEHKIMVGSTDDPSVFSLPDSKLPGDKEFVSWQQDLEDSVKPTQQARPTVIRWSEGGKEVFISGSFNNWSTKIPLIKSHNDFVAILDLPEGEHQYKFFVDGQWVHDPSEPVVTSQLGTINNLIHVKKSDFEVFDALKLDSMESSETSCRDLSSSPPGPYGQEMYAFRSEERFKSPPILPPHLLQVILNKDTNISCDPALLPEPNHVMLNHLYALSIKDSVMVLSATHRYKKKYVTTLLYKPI
T1 sequence (P54619 whole entry partner): as the sequence (P54619 whole entry partner) above

Q: Which results are given for `CC(=O)[O-].CC(=O)[O-].CC(=O)[O-].CC(=O)[O-].CC(=O)[O-].CC(=O)[O-].[Zn+2].[Zn+2].[Zn+2].c1ccc(-c2csc(NCCN(CCNc3nc(-c4ccccn4)cs3)CCNc3nc(-c4ccccn4)cs3)n2)nc1.c1ccc(-c2csc(NCCN(CCNc3nc(-c4ccccn4)cs3)CCNc3nc(-c4ccccn4)cs3)n2)nc1` [[L2Zn3]6+]?
A: AMPK activity remaining (AMPK; in the absence of AMP): ~ 30%; AMPK activity remaining (AMPK; in the presence of AMP (80 or 160 microM)): 20-30%; time from which decrease in phosphorylated T172 AMPKα and S108 AMPKβ1 is evident [1]: ≥ 2 h; concentration from which dephosphorylation is evident [2]: ≥ 12.5 µM; decrease in Y527P relative to total Src levels (Src): ~ 30%; increase in Y416P levels (Src): ~ 5 fold
